Measured values taken from the NIST ThermoML archive (doi:10.1016/j.jct.2008.02.020).

Settings: Liquid, Buoyancy - hydrostatic balance with magnetic suspension - one sinker

CCCCCCCCC [nonane]
Settings	mass density [kg/m3]
233.15 K, 101.46 kPa	763.962
233.15 K, 1176.1 kPa	764.563
233.15 K, 2178.2 kPa	765.126
233.15 K, 4167 kPa	766.231
233.15 K, 5936.5 kPa	767.203
233.15 K, 8144.5 kPa	768.395
233.15 K, 10066 kPa	769.42
233.15 K, 12148 kPa	770.516
233.15 K, 14076 kPa	771.516
233.15 K, 16087 kPa	772.548
233.15 K, 18067 kPa	773.551
233.15 K, 19984 kPa	774.511
233.15 K, 21990 kPa	775.502
233.15 K, 24044 kPa	776.506
233.15 K, 25990 kPa	777.446
233.15 K, 27927 kPa	778.373
233.15 K, 29906 kPa	779.308
253.15 K, 101.82 kPa	748.678
253.15 K, 1135.3 kPa	749.335
253.15 K, 2178.6 kPa	749.992
253.15 K, 3967.8 kPa	751.107
253.15 K, 6147.5 kPa	752.446
253.15 K, 8138 kPa	753.648
253.15 K, 10112 kPa	754.82
253.15 K, 12111 kPa	755.991
253.15 K, 14130 kPa	757.156
253.15 K, 16140 kPa	758.299
253.15 K, 18106 kPa	759.398
253.15 K, 20064 kPa	760.484
253.15 K, 22026 kPa	761.552
253.15 K, 23955 kPa	762.59
253.15 K, 25972 kPa	763.661
253.15 K, 27913 kPa	764.677
253.15 K, 29967 kPa	765.739
273.15 K, 102.52 kPa	733.389
273.15 K, 1156.8 kPa	734.143
273.15 K, 2138 kPa	734.842
273.15 K, 4026 kPa	736.166
273.15 K, 6169.4 kPa	737.644
273.15 K, 8161.4 kPa	738.99
273.15 K, 10122 kPa	740.29
273.15 K, 12106 kPa	741.586
273.15 K, 14101 kPa	742.864
273.15 K, 16067 kPa	744.108
273.15 K, 18074 kPa	745.354
273.15 K, 20036 kPa	746.555
273.15 K, 22000 kPa	747.737
273.15 K, 23996 kPa	748.923
273.15 K, 25994 kPa	750.093
273.15 K, 27982 kPa	751.238
273.15 K, 29876 kPa	752.316
293.15 K, 101.69 kPa	717.968
293.15 K, 1184.3 kPa	718.847
293.15 K, 2129.2 kPa	719.604
293.15 K, 3960.5 kPa	721.055
293.15 K, 6115.4 kPa	722.729
293.15 K, 7981.6 kPa	724.145
293.15 K, 10015 kPa	725.663
293.15 K, 12149 kPa	727.214
293.15 K, 13981 kPa	728.526
293.15 K, 16170 kPa	730.062
293.15 K, 17943 kPa	731.285
293.15 K, 20200 kPa	732.813
293.15 K, 22156 kPa	734.115
293.15 K, 24158 kPa	735.421
293.15 K, 26136 kPa	736.696
293.15 K, 28126 kPa	737.958
293.15 K, 29978 kPa	739.115
313.15 K, 98.73 kPa	702.339
313.15 K, 1168.7 kPa	703.323
313.15 K, 2131.9 kPa	704.205
313.15 K, 3967.4 kPa	705.852
313.15 K, 6162.3 kPa	707.777
313.15 K, 8113.9 kPa	709.449
313.15 K, 10024 kPa	711.038
313.15 K, 12173 kPa	712.791
313.15 K, 14170 kPa	714.384
313.15 K, 16194 kPa	715.964
313.15 K, 17956 kPa	717.315
313.15 K, 20057 kPa	718.889
313.15 K, 22191 kPa	720.459
313.15 K, 24136 kPa	721.862
313.15 K, 26139 kPa	723.282
313.15 K, 28073 kPa	724.629
313.15 K, 29972 kPa	725.932
333.15 K, 102.84 kPa	686.431
333.15 K, 1137.5 kPa	687.521
333.15 K, 2113.9 kPa	688.539
333.15 K, 4162.7 kPa	690.632
333.15 K, 6145.3 kPa	692.599
333.15 K, 8151.9 kPa	694.535
333.15 K, 10024 kPa	696.296
333.15 K, 12114 kPa	698.208
333.15 K, 14127 kPa	700.005
333.15 K, 15989 kPa	701.627
333.15 K, 18027 kPa	703.362
333.15 K, 19954 kPa	704.977
333.15 K, 22112 kPa	706.723
333.15 K, 24080 kPa	708.292
333.15 K, 26038 kPa	709.821
333.15 K, 28054 kPa	711.366
333.15 K, 29912 kPa	712.772
353.15 K, 97.13 kPa	671.217
353.15 K, 2136.7 kPa	672.617
353.15 K, 6141.9 kPa	677.222
353.15 K, 8110.9 kPa	679.378
353.15 K, 10054 kPa	681.439
353.15 K, 12124 kPa	683.57
353.15 K, 14144 kPa	685.589
353.15 K, 15989 kPa	687.385
353.15 K, 18011 kPa	689.305
353.15 K, 20036 kPa	691.174
353.15 K, 21991 kPa	692.938
353.15 K, 23965 kPa	694.678
353.15 K, 25968 kPa	696.403
353.15 K, 27955 kPa	698.078
353.15 K, 29939 kPa	699.718
373.15 K, 102.37 kPa	653.427
373.15 K, 1227.9 kPa	655.018
373.15 K, 2148.9 kPa	656.298
373.15 K, 4131.5 kPa	658.968
373.15 K, 6127 kPa	661.551
373.15 K, 8138.8 kPa	664.058
373.15 K, 10022 kPa	666.323
373.15 K, 12112 kPa	668.749
373.15 K, 14119 kPa	671.003
373.15 K, 16134 kPa	673.197
373.15 K, 18104 kPa	675.276
373.15 K, 20078 kPa	677.302
373.15 K, 22064 kPa	679.286
373.15 K, 23988 kPa	681.158
373.15 K, 26124 kPa	683.184
373.15 K, 28010 kPa	684.93
373.15 K, 29905 kPa	686.647
